Source: patent publication US20160250285A1, “NEUROPROTECTIVE PEPTIDES” (priority 2013, published 2016)
Entries after “also recorded” stand apart in the source; their conditions may differ. Ends that are not written are not given here.

Columns and labels:
[1] = system: primary cortical neuronal cultures; assay: In vitro ischemia / oxygen-glucose deprivation (OGD) model, neurons; assay type: cell-based, rat; settings: for neuroprotection when added for 15 minutes after OGD: FIGS. 31, 20, 22, 1 μM and 5 μM in FIG. 31
[2] = system: intracellular calcium influx in neuronal cultures; assay: Intracellular calcium influx (Fura-2 AM) after glutamic acid; assay type: cell-based, rat; settings: peptide 5 μM for 10 min, removed before 100 μM glutamic acid (FIG. 44)
Experimental: Fura-2 AM was used for intracellular calcium assessment. Representative fluorescent Fura-2 AM tracers; fluorescence intensity (FI) of neuronal cultures 30 sec before and following addition (arrow) of glutamic acid (100 μM final concentration). Peptides or glutamate receptor blockers were added to neuronal cultures for 10 min and removed (time 0) before glutamic acid. Values are mean±SE; n=3. Peptide concentration was 5 μM.
Briefly, cortical tissue from E18-E19 Sprague-Dawley rats was dissociated in Dulbecco's modified Eagle medium (DMEM; Invitrogen, Australia) supplemented with 1.3 mM L-cysteine, 0.9 mM NaHCOa, 10 units/ml papain (Sigma, USA) and 50 units/ml DNase (Sigma) and washed in cold DMEM/10% horse serum. Neurons were resuspended in Neurobasal (Invitrogen) containing 2% B27 supplement (B27; Invitrogen). Before seeding, 96-well sized glass wells (6 mm diameter, ProTech, Australia) or 96-well plastic plates (ProSciTech, Australia) were coated with poly-D-lysine overnight (50 ml/well: 50 mg/mL; 70-150 K, Sigma). Excess poly-D-lysine solution was then removed and replaced with Neurobasal (containing 2% B27; 4% fetal bovine serum; 1% horse serum; 62.5 mM glutamate; 25 mM 2-mercaptoethanol; and 30 mg/mL streptomycin and 30 mg/mL penicillin). Neurons were plated to obtain ≈10,000 viable neurons for each well on day in vitro 11-12. Neuronal cultures were maintained in a CO2 incubator (5% CO2, 95% air balance, 98% humidity) at 37° C. On day in vitro 4 one third of the culture medium was removed and replaced with fresh Neurobasal/2% B27 containing the mitotic inhibitor, cytosine arabinofuraNOside (1 mM final concentration; Sigma). On day in vitro 8 one half of the culture medium was replaced with Neurobasal/2% B27. Cultures were used on day in vitro 11 or 12 after which time they routinely consist of >97% neurons and 1-3% astrocytes (Meloni et al. 2001).

[3] = system: primary cortical neuronal cultures
Experimental: Briefly, cortical tissue from E18-E19 Sprague-Dawley rats was dissociated in Dulbecco's modified Eagle medium (DMEM; Invitrogen, Australia) supplemented with 1.3 mM L-cysteine, 0.9 mM NaHCOa, 10 units/ml papain (Sigma, USA) and 50 units/ml DNase (Sigma) and washed in cold DMEM/10% horse serum. Neurons were resuspended in Neurobasal (Invitrogen) containing 2% B27 supplement (B27; Invitrogen). Before seeding, 96-well sized glass wells (6 mm diameter, ProTech, Australia) or 96-well plastic plates (ProSciTech, Australia) were coated with poly-D-lysine overnight ([…]: 50 mg/mL; 70-150 K, Sigma). […] Neurons were plated to obtain ≈10,000 viable neurons for each well on day in vitro 11-12. […] On day in vitro 4 one third of the culture medium was removed and replaced with fresh Neurobasal/2% B27 containing the mitotic inhibitor, cytosine arabinofuraNOside (1 mM final concentration; Sigma). On day in vitro 8 one half of the culture medium was replaced with Neurobasal/2% B27.
To induce excitotoxicity, 50 μl of Neurobasal/2% B27 containing glutamic acid (200 μM) or kainic acid (400 μM) or NMDA (200 μM) was added to the culture wells (100 μM glutamic acid, 200 μM kainic acid and NMDA 100 μM final concentration). Cultures were incubated at 37° C. in the CO2 incubator for 5 minutes for glutamic acid, 45 minutes for kainic acid and 10 minutes for NMDA exposure, after which time the media was replaced with 100 μl of 50% Neurobasal/2% N2 supplement (Invitrogen) and 50% balanced salt solution (BSS; see below). Cultures were incubated for a further 24 hours at 37° C. in the CO2 incubator. The untreated controls with or without glutamic acid or kainic acid treatment received the same wash steps and media additions.
Following this step, cultures were treated as described above. Untreated controls with or without glutamic acid exposure received the same wash steps and media additions. In addition, a post-glutamic acid exposure CPP treatment (5 μM) experiment was performed for the R9 peptide and the JNKI-1D-TAT control peptide.
For pre-glutamic acid exposure experiments, neurons were exposed to peptide(s) for a 10 minute period, immediately before or 1, 2, 3, 4 or 5 hours prior to glutamic acid exposure. […] At the relevant peptide pre-treatment time, media was removed and replaced with 100 μl of Neurobasal/2%. […] Following 5-minute glutamic acid exposure, neuronal culture wells were treated as described above. For all experiments untreated controls with or without glutamic acid treatment underwent the same incubation steps and media additions.
Heparin (for injection) was obtained from Pfizer (1000 IU/ml). Two different heparin experiments were performed: 1. Peptides were incubated with heparin (20 IU/ml) in Neurobasal/B27 for 5 minutes at room temperature, before addition to culture wells (50 μl) for 15 minutes at 37° C. in the CO2 incubator. Following the incubation period, media in wells was removed and replaced with 100 μl of Neurobasal/2% B27 containing glutamic acid (100 μM), and subsequently treated as described above; 2. Media in wells was replaced with Neurobasal/2% B27 containing heparin (50 μl; 40 IU/ml) and incubated for 5 minutes at 37° C. in the CO2 incubator. After the incubation period, peptides or glutamate receptor blockers (MK801/CNQX) in Neurobasal/2% B27 (50 μl) were added to the culture wells and cultures incubated for a further 10 minutes at 37° C. in the CO2 incubator. Following the incubation period, media in wells was removed and replaced with 100 μl of Neurobasal/2% B27 containing glutamic acid (100 μM), and subsequently treated as described above. For all experiments, non-heparin treated peptide controls with glutamic acid treatment underwent the same incubation steps and media additions.
Twenty-four hours after insult, neuronal cultures were examined by light microscopy for qualitative assessment of neuronal cell viability.

[4] = system: permanent middle cerebral artery occlusion (MCAO) stroke model; assay: Rat permanent middle cerebral artery occlusion (MCAO) stroke model; assay type: in vivo; settings: 1 μmol/kg intravenously 30 min post-MCAO
Experimental: Administration of peptide (DR9: rrrrrrrrr-NH2; R12, R15, R18, protamine sulphate; protamine) or vehicle (saline: 0.9% NaCl) treatment solution was performed at 30 min post-MCAO. The peptide treatment comprised DR9 in saline (600 μl) to provide an intravenous loading dose of 1 μmol/kg or 1000 nmol/kg given over 5-6 min via the right jugular vein.
This study was approved by the Animal Ethics Committee of the University of Western Australia. Male Sprague Dawley rats weighing 270 g to 350 g were kept under controlled housing conditions with 12 hour light-dark cycle with free access to food and water. Experimental animals were fasted overnight and subjected to permanent middle cerebral artery occlusion (MCAO) as follows.
Anaesthesia was induced with 4% isoflurane and a 2:1 mix of N2O and O2 via mask. Anaesthesia was maintained at 1.7-2% isoflurane. Cerebral blood flow (CBF) was monitored continuously using laser Doppler flowmetry (Blood FlowMeter, AD Instruments, Sydney, Australia). The probe was located 1 mm caudal and 4 mm lateral (right) to the bregma. A cannula was inserted in the right femoral artery to continuously monitor blood pressure and to provide samples for blood glucose and blood gas readings. Blood glucose was measured using a glucometer (MediSense Products, Abbott Laboratories, Bedford, Mass., USA) and blood gases were measured using a blood gas analyser (ABL5, Radiometer, Copenhagen, Denmark). Blood pressure was maintained at 80-100 mmHg. During surgery, rectal temperature was maintained at 37±0.5° C. and warming applied with a fan heater when necessary. For intravenous infusions, a length of PVC line primed with heparinised saline was tied in place in the right jugular vein, then externalised through a dorsal mid-scapular incision to a tether/swivel system (Instech Laboratories, Philadelphia, USA) designed to permit free movement.
The right common carotid artery (CCA) was exposed via a ventral neck incision. […] The isolated section of the ECA was ligated and cauterised to create a stump. The carotid body was removed and the pterygopalatine artery was ligated. A 4-0 nylon monofilament with a 0.39 mm diameter silicone tip (Doccol, Redlands, Calif., USA) was inserted through the ECA stump into the CCA and advanced rostrally into the internal carotid artery (ICA) until the laser Doppler flowmetry recorded a >30% decrease from baseline of cerebral blood flow. The monofilament was secured in two places (at the base of the ECA stump and on the ICA) for the remainder of the experiment. Animals were given post-operative analgesia consisting of pethidine (3 mg/kg intramuscular) and bupivacaine (1.5 mg/kg subcutaneously) at head and leg incision sites.
Post-surgery animals were allowed to recover in a climate-controlled chamber and their core body temperature monitored and maintained at 37±0.5° C. by a cooling/heating fan when required for 3-4 hours.
Animals were sacrificed 24 hours post-MCAO with intra-peritoneal injections of sodium pentobarbitone (900 mg/kg). […] Slices were scanned and images were analysed by an operator blind to treatment status using ImageJ 3rd edition (NIH, USA). The total infarct volume was determined by adding the areas of infarcted tissue on both sides of the 2 mm sections. These measured areas were multiplied by half slice thickness (1 mm), and corrected for cerebral oedema by multiplying the ratio of affected to normal hemisphere areas. […]

[5] = system: brain endothelial cells (bEND3 cells); assay: In vitro ischemia/OGD model, bEND3 cells; assay type: cell-based; settings: peptide during/after ischemia (FIG. 3c) or 15 min before OGD (FIGS. 23, 24)
Experimental: The in vitro ischemia model was also used for bEND3 cells, SH-SY5Y cells, and astrocytes. For bEND3 cells anaerobic incubation was extended to 2-3 hours and upon removal from the anaerobic incubator, 60 μl of DMEM/2% FCS was added to wells. […] Upon removal from the anaerobic incubator, 60 μl of DMEM/2% FCS was added to wells.
Twenty-four hours after insult, neuronal cultures were examined by light microscopy for qualitative assessment of neuronal cell viability. Neuronal viability was quantitatively measured by 3-(4,5,dimethyliazol-2-yl)-5-(3-carboxymethoxy-phenyl)-2-(4-sulfophenyl)-2H-tetrazolium salt (MTS) assay (Promega, Australia). The MTS assay measures the cellular conversion of the tetrazolium salt to a water-soluble brown formazan salt, which is detected spectrophotometrically at 490 nm. MTS absorbance data were converted to reflect proportional cell viability relative to both the untreated and treated controls, with the untreated control taken as 100% viability, and presented as mean±SEM. For studies using astrocytes, bEND3, and SH-Y5Y cells, raw MTS data was used to generate graphs. Viability data was analysed by ANOVA, followed by post-hoc Fischer's PLSD test, with P<0.05 values considered statistically significant. Four- to six wells were used in all assays.

primary rat astrocytes = assay: Astrocyte toxicity model; assay type: cell-based; settings: 2.5 to 10 μM, 24 hour exposure (FIG. 43)
Experimental: A brain endothelial cell line (bEND3) and a neuroblastoma cell line (SH-SY5Y) were also used for some experiments. bEND3 and SH-SY5Y cells were cultured using standard techniques in DMEM plus 5 or 15% foetal calf serum. Rat primary astrocytes were obtained and cultured as described for cortical neurons except DMEM plus 10% foetal calf serum was used instead of Neurobasal/2% B27, and the mitotic inhibitor, cytosine arabinofuraNOside was not used.
For neuronal cultures peptides were added to culture wells (96-well plate format) by removing media and adding 100 μl of 50% Neurobasal/2% N2 supplement and 50% BSS containing CPPs, JNKI-1 D-TAT or TAT-NR2B9c. Control cultures received of 50% Neurobasal/2% N2 supplement and 50% BSS media only. Cultures were incubation at 37° C. in the CO2 incubator for 20 hours, after which time cell viability was assessed using the MTS assay. For bEND3 cultures, peptides were added to culture wells (96-well plate format) by removing media and adding 100 μl of DMEM/2% FCS containing peptide. Control cultures received 100 μl of DMEM/2% FCS only, Cultures were incubation at 37° C. in the CO2 incubator for 0.5, 1 or 2 hours, after which time cell viability was assessed using the MTS assay. […] Cultures were incubation at 37° C. in the CO2 incubator for 24 hours, after which time cell viability was assessed using the MTS assay.
Twenty-four hours after insult, neuronal cultures were examined by light microscopy for qualitative assessment of neuronal cell viability. Neuronal viability was quantitatively measured by 3-(4,5,dimethyliazol-2-yl)-5-(3-carboxymethoxy-phenyl)-2-(4-sulfophenyl)-2H-tetrazolium salt (MTS) assay (Promega, Australia). The MTS assay measures the cellular conversion of the tetrazolium salt to a water-soluble brown formazan salt, which is detected spectrophotometrically at 490 nm. MTS absorbance data were converted to reflect proportional cell viability relative to both the untreated and treated controls, with the untreated control taken as 100% viability, and presented as mean±SEM. […]

## N=C(N)NCCC[C@H](NC(=O)[C@H](CCCNC(=N)N)NC(=O)[C@H](CCCNC(=N)N)NC(=O)[C@H](CCCNC(=N)N)NC(=O)[C@H](CCCNC(=N)N)NC(=O)[C@H](CCCNC(=N)N)NC(=O)[C@H](CCCNC(=N)N)NC(=O)[C@H](CCCNC(=N)N)NC(=O)[C@H](CCCNC(=N)N)NC(=O)[C@H](CCCNC(=N)N)NC(=O)[C@H](CCCNC(=N)N)NC(=O)[C@@H](N)CCCNC(=N)N)C(=O)O [Peptide R12]
[1]; FIG. 32
  neuroprotection, peptide for 10 minutes, 1 to 3 hours prior to OGD: effective
[1]
  neuroprotection when added for 15 minutes after OGD: Neuroprotection is displayed
[1]; added after anaerobic incubation until experiment end (FIGS. 3b, 16, 17)
  neuroprotection when added post-in vitro ischemia/OGD: displayed neuroprotective effects; also recorded: effective
[2]
  calcium influx after glutamic acid: to varying degrees reduced calcium influx
[3]; 0 min post-insult (FIG. 1d)
  neuroprotection when added immediately after glutamic acid exposure: highly effective
[3]; FIG. 1i, comparison at 0.5 μM and 1 μM
  neuroprotection, milder insult: more effective than R9
[3]; FIG. 28
  neuroprotection, peptide present during the 5 minute glutamic acid insult only: effective
[3]; FIG. 29, FIG. 14
  neuroprotection, 10 minute pre-exposure removed immediately prior to insult: effective
[3]; FIG. 30
  neuroprotection, peptide for 10 minutes, 1 to 4 hours prior to glutamic acid insult: effective
[3]; heparin 20 IU/ml with peptide or 40 IU/ml on cultures (FIGS. 39, 40)
  effect of heparin on neuroprotective action: blocks neuroprotective actions
[3]; read-out: IC50: Glutamic acid model, Table 4, polyarginine peptides, from dose response graph FIG. 1e
  IC50: 440 nM
[4]
  neuroprotective activity in vivo: possessed neuroprotective activity in vivo

## PRRRRASRRIRRRRRPRVSRRRRRGGRRRR [Ptm4]
[1]
  neuroprotection when added for 15 minutes after OGD: neuroprotective
[1]; discussion summary
  neuroprotection in the OGD model (overall statement): neuroprotective
[5]
  protection of bEND3 cells (cell death / viability after in vitro ischemia/OGD): significantly increased cell viability
[5]; listed as ptm4
  protection of bEND3 cells (cell death / viability after in vitro ischemia/OGD): protective
[3]; peptide 15 min prior to and during glutamic acid exposure, viability 24 h, MTS
  neuroprotection (neuronal viability): neuroprotective

## PRRRRRSSSRPIRRRRRPRASRRRRRGGRRRR [Ptm1]
Primary rat astrocytes
  astrocyte cell death following peptide exposure: did not cause significant astrocyte cell death

## PRRRRSSSRPVRRRRRPRVSRRRRRRGGRRRR [Ptm5]
Primary rat astrocytes
  astrocyte cell death following peptide exposure: did not cause significant astrocyte cell death

## VSRRRRRRGGRRRR [LMWP]
Primary rat astrocytes
  astrocyte cell death following peptide exposure: did not cause significant astrocyte cell death
